This note sets out measurements from patent US20230227449A1, “AMIDOPYRIMIDONE DERIVATIVES” (Hoffmann-La Roche Inc., priority 2020, published 2023).

Counter-ions that a name gives are not always drawn. Bounds are passed on as bounds.

The target in this test is Recombinant human Mat2a (Homo sapiens, UniProt P31153). The test can be described thus: Determination of Mat2A activity (384 well absorbance-based assay, Biomol Green). Type of test: biochemical. As to conditions: 12.5 nM Mat2A, 100 μM ATP and Methionine, 2% DMSO, 120 minutes at RT, absorbance at 635 nm. Put shortly: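 Recombinant human Mat2A (12.5 nM) was preincubated with compound for 15 min at RT in HEPES pH 7.5 buffer with 2% DMSO. The reaction was started with 100 μM each of ATP and methionine and ran 120 min at RT. Phosphate was detected with Biomol Green by absorbance at 635 nm.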
Recombinant human Mat2a, sequence (P31153 whole entry): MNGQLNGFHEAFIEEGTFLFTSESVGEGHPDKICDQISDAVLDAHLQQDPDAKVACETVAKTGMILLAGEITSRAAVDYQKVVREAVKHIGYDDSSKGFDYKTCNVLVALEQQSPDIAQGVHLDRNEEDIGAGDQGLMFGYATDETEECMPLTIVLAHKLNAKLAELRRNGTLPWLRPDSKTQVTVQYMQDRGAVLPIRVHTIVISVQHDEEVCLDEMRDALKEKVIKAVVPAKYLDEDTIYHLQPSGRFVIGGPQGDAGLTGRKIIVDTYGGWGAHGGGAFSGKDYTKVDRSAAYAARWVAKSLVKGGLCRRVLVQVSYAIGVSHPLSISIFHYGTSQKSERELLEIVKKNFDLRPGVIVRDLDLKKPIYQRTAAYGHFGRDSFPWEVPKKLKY
A word on the IC50: it is the concentration needed to halve the response being measured. As for `Cc1ncccc1-n1c(=O)nc(N)c2cc(C#N)c(C3CC3)nc21` [Example 37, 4-amino-7-cyclopropyl-1-(2-methylpyridin-3-yl)-2-oxo-1,2-dihydropyrido[2,3-d]pyrimidine-6-carbonitrile], the 50% inhibitory concentration (IC50) was determined as 0.015 µM. On to `Cc1ccccc1-n1c(=O)nc(N)c2ccc(OC(F)F)cc21` [Example 144, 4-amino-7-(difluoromethoxy)-1-(o-tolyl)quinazolin-2 (1H)-one], for which the IC50 is less than 0.013 µM.

Take `Nc1nc(=O)n(-c2ccccc2Cl)c2nc(C3CC3)ccc12` (single isomer, unassigned) [Example 115, (−)-4-amino-1-(2-chlorophenyl)-7-cyclopropylpyrido[2,3-d]pyrimidin-2 (1H)-one]: the IC50 was found to be 0.072 µM. For `Nc1nc(=O)n([C@H]2CCCCOC2)c2nc(C3CC3)ccc12` [Example 125, (S)-4-amino-7-cyclopropyl-1-(oxepan-3-yl)pyrido[2,3-d]pyrimidin-2 (1H)-one], the IC50 was 0.04 µM. As for `Nc1nc(=O)n(-c2ccc(F)cc2Cl)c2nc(C3CC3)ccc12` [Example 155, 4-amino-1-(2-chloro-4-fluorophenyl)-7-cyclopropylpyrido[2,3-d]pyrimidin-2 (1H)-one], the figure is 0.016 µM; as for `Cc1ccccc1-n1c(=O)nc(N)c2ccc(C3CC3)cc21` [Example 8, 4-amino-7-cyclopropyl-1-(o-tolyl)quinazolin-2 (1H)-one], less than 0.013 µM; as for `Nc1nc(=O)n(-c2cccnc2Cl)c2cc(OC(F)(F)F)ccc12` [Example 109, 4-amino-1-(2-chloro-3-pyridyl)-7-(trifluoromethoxy)quinazolin-2-one], 0.016 µM.

In the case of `Nc1nc(=O)n(-c2ccc(F)c(F)c2)c2nc(C3CC3)ccc12` [Example 147, 4-amino-7-cyclopropyl-1-(3,4-difluorophenyl)pyrido[2,3-d]pyrimidin-2 (1H)-one], the IC50 was 0.031 µM. In the case of `Cc1c(C#N)cccc1-n1c(=O)nc(N)c2ccc(C3CC3)nc21` (single isomer, unassigned) [Example 146, (−)-3-(4-amino-7-cyclopropyl-2-oxopyrido[2,3-d]pyrimidin-1 (2H)-yl)-2-methylbenzonitrile], the IC50 came out at 0.058 µM. With `Cc1c(O)cccc1-n1c(=O)nc(N)c2ccc(C3CC3)nc21` [Example 123, 4-amino-7-cyclopropyl-1-(3-hydroxy-2-methylphenyl)pyrido[2,3-d]pyrimidin-2 (1H)-one], the IC50 came out at 0.013 µM. Turning to `Cc1ncccc1-n1c(=O)nc(N)c2cc(F)c(C3CC3)nc21` [Example 10, 4-amino-7-cyclopropyl-6-fluoro-1-(2-methylpyridin-3-yl)pyrido[2,3-d]pyrimidin-2(1H)-one], the IC50 is less than 0.013 µM.

On to `Nc1nc(=O)n(C2CCCOC23CC3)c2nc(C3CC3)ccc12` (stereo not drawn) [Example 88, 4-amino-7-cyclopropyl-1-(4-oxaspiro[2.5]octan-8-yl)pyrido[2,3-d]pyrimidin-2(1H)-one], for which the IC50 is less than 0.013 µM. On to `Nc1nc(=O)n(C2CCNC(=O)C2)c2nc(C3CC3)ccc12` (stereo not drawn) [Example 97, 4-amino-7-cyclopropyl-1-(2-oxopiperidin-4-yl)pyrido[2,3-d]pyrimidin-2 (1H)-one], for which the IC50 came out at 0.048 µM.

As for `Cc1ncccc1-n1c(=O)nc(N)c2ccc(C3CCC3)nc21` [Example 53, 4-amino-7-cyclobutyl-1-(2-methyl-3-pyridyl)pyrido[2,3-d]pyrimidin-2-one], the IC50 was less than 0.013 µM.

For `Cc1ccccc1-n1c(=O)nc(N)c2c(C(N)=O)cc(C3CC3)nc21` [Example 94, 4-amino-7-cyclopropyl-2-oxo-1-(o-tolyl)-1,2-dihydropyrido[2,3-d]pyrimidine-5-carboxamide], the half-inhibitory concentration (IC50) is 0.074 µM. Regarding `Nc1nc(=O)n(-c2cc(F)cc(F)c2)c2nc(C3CC3)ccc12` [Example 70, 4-amino-7-cyclopropyl-1-(3,5-difluorophenyl)pyrido[2,3-d]pyrimidin-2(1H)-one], the IC50 worked out at 0.066 µM. As for `Cc1cccc(-n2c(=O)nc(N)c3ccc(C4CC4)nc32)c1C` [Example 138, 4-amino-7-cyclopropyl-1-(2,3-dimethylphenyl)pyrido[2,3-d]pyrimidin-2 (1H)-one], the IC50 is less than 0.013 µM.

As for `Cc1ncccc1-n1c(=O)nc(N)c2cc(Cl)c(C3CC3)nc21` [Example 18, 4-amino-6-chloro-7-cyclopropyl-1-(2-methylpyridin-3-yl)pyrido[2,3-d]pyrimidin-2(1H)-one], the IC50 is less than 0.013 µM.

With `Nc1nc(=O)n(-c2cccc(OC(F)(F)F)n2)c2nc(C3CC3)ccc12` [Example 163, 4-amino-7-cyclopropyl-1-[6-(trifluoromethoxy)pyridin-2-yl]pyrido[2,3-d]pyrimidin-2-one], the 50% inhibitory concentration (IC50) was 0.031 µM. For the molecule `Nc1nc(=O)n([C@H]2CCCOC2)c2nc(C3CC3)ccc12` [Example 27, 4-amino-7-cyclopropyl-1-[(3S)-oxan-3-yl]pyrido[2,3-d]pyrimidin-2-one], the IC50 was found to be 0.042 µM. To `COc1cccc(-n2c(=O)nc(N)c3ccc(C4CC4)nc32)n1` [Example 72, 4-amino-7-cyclopropyl-1-(6-methoxypyridin-2-yl)pyrido[2,3-d]pyrimidin-2(1H)-one] belongs less than 0.013 µM; to `Nc1nc(=O)n(-c2cccc3[nH]ncc23)c2nc(C3CC3)ccc12` [Example 139, 4-amino-7-cyclopropyl-1-(1H-indazol-4-yl)pyrido[2,3-d]pyrimidin-2 (1H)-one], less than 0.013 µM; to `Nc1nc(=O)n(-c2ccccc2)c2nc(C3CC3)ccc12` [Example 74, 4-amino-7-cyclopropyl-1-phenylpyrido[2,3-d]pyrimidin-2(1H)-one], 0.016 µM. As for `Nc1nc(=O)n(-c2cccnc2Cl)c2nc(C3CC3)ccc12` (single isomer, unassigned) [Example 135, (+)-4-amino-1-(2-chloropyridin-3-yl)-7-cyclopropylpyrido[2,3-d]pyrimidin-2 (1H)-one], the figure is less than 0.013 µM; as for `Nc1nc(=O)n(-c2cc(F)ccc2Cl)c2nc(C3CC3)ccc12` [Example 156, 4-amino-1-(2-chloro-5-fluorophenyl)-7-cyclopropylpyrido[2,3-d]pyrimidin-2-one], 0.021 µM. On to `Nc1nc(=O)n([C@H]2CCCOC23CC3)c2nc(C3CC3)ccc12` [Example 142, 4-amino-7-cyclopropyl-1-[(8S)-4-oxaspiro[2.5]octan-8-yl]pyrido[2,3-d]pyrimidin-2-one], for which the IC50 is less than 0.013 µM. Turning to `C[C@@H]1OCC[C@H]1n1c(=O)nc(N)c2ccc(C3CC3)nc21` (racemic) [Example 30, 4-amino-7-cyclopropyl-1-[rac-(2RS,3SR)-2-methyloxolan-3-yl]pyrido[2,3-d]pyrimidin-2-one], the IC50 turned out to be 0.022 µM. `Cc1ccccc1-n1c(=O)nc(N)c2ccc(OC(F)F)nc21` [Example 91, 4-amino-7-(difluoromethoxy)-1-(2-methylphenyl)pyrido[2,3-d]pyrimidin-2-one]: the IC50 was less than 0.013 µM. With `Cc1ncccc1-n1c(=O)nc(N)c2ccc(CC(F)(F)F)cc21` [Example 83, 4-amino-1-(2-methyl-3-pyridyl)-7-(2,2,2-trifluoroethyl)quinazolin-2-one hydrochloride], the IC50 came to 0.032 µM. Take `Cc1ncccc1-n1c(=O)nc(N)c2ccc(C3=COCC3)nc21` [Example 41, 4-amino-7-(4,5-dihydrofuran-3-yl)-1-(2-methylpyridin-3-yl)pyrido[2,3-d]pyrimidin-2 (1H)-one]: the IC50 stood at 0.045 µM.
